Here are results for 16 molecules from patent publication US4745223A, “Mono-tertiary-alkylated toluenediamine and derivatives” (Air Products and Chemicals, Inc., priority 1985, dated 1988).

Data set [1] can be described thus: Pot life test of chain extenders in polyurethane-urea formulation. Conditions: 50° C., log (relative viscosity) = I + A*(time) + B*(time)**2 + C*(time)**3. As to the method:
A series of polyurethane-urea elastomers utilizing various chain extenders was prepared and evaluated in a pot life test system for the purpose of determining the reactivity of the chain extenders in standard urethane formulations relative to one another. The polyurethane-urea elastomers were formulated by reacting a prepolymer of poly(1,4-oxytetramethylene)glycol end-capped with 2,4-toluene diisocyanate, the prepolymer having an NCO content generally from 5-7%, with the test candidate chain extender aromatic diamine and a diol. The nominal stoichiometric equivalent ratio of isocyanate to diamine chain extender to diol for each sample is 2:1:1.
The test system for measuring pot life comprised a heated test chamber for holding 7 grams of test sample at a constant temperature (50° C.) and was equipped with a vertical perforated piston. This piston moves up and down through the test sample in timed relationship. (The temperature rise due to the exothermic reaction is discounted.) The force necessary to move the piston through the polymer sample is measured in arbitrary units, and the relationship of the force is plotted as a function of time. The force-pot life relationship of the urethane system during cure then is correlated to known force-viscosity relationships for the urethane-urea systems.
The coefficients apply to the equation:
log (viscosity)=I+A(time)+B(time)^2 +C(time)^3.
The coefficient of the first power term ("A") is a "quasi" reaction rate constant measuring initial reactivity. Smaller values in the quasi rate constant (A) indicate longer and desirable pot lives. The value T-5000 is the time in which the reaction product has a relative viscosity of 5000 units. Even though the value is an arbitrary value, that value is relevant for use in determining the performance of the test candidate in a RIM process or cast elastomers process. For injection molding of modest size parts, T-5000 may be about 2.5 minutes; whereas, the molding of large or intricate parts may require a T-5000 of greater than 5 minutes, e.g., 10 to 40 minutes for hand casting.

The subject of data set [2] is Salmonella strain TA1537. Briefly: Ames mutagenic assay, strain (TA1537), without (-) and with (+) metabolic activation. Format: cell-based. To be noted: first strain column, TA1537 as printed. As for the experimental part: (§1) A series of chain extenders was tested in the Ames mutagenic assay using five strains of Salmonella bacteria without (-) and with (+) metabolic activation. Table 6 provides the results of various test compounds including a variety of known aromatic diamine chain extenders against these five strains of Salmonella bacteria. The data are presented as the quantity of test compound in micrograms per test plate that gave positive mutagencity results.
(§2) From Pharmakon Research International, the Ames test data evaluation criteria in Table 5 are clearly defined: "In most tests with the Salmonella/Microsome Assay, results are either clearly positive or clearly negative. A positive result is defined as a reproducible, dose-related increase in the number of histidine-independent colonies. This dose-response relationship occasionally necessitates slight modification of the original doses in a repeat assay. If the historical control is within one standard deviation of the historical mean and the test chemical produces the highest increase equal to or greater than three times the solvent control value, the test chemical is considered positive. A negative result is defined as the absence of a reproducible increase in the number of histidine-independent colonies."

Data set [3] deals with Salmonella strain TA1537. Briefly: Ames mutagenic assay, second strain column (printed TA1537), without (-) and with (+) metabolic activation. Conditions: TA1537 as printed, (+) with metabolic activation. Format: cell-based. As to the method: as §1, §2
On the technique in general: In the Ames test, an excess of revertant colonies over the control signals mutagenicity.

Data set [4] concerns Salmonella strain TA1538. Briefly: Ames mutagenic assay, strain TA1538. Format: cell-based. As for the experimental part:
as §1, §2

The subject of data set [5] is Salmonella strain TA98. In words: Ames mutagenic assay, strain TA98. It is filed as cell-based. Conditions: TA98, (+) with metabolic activation. As to the method:
as §1, §2

Data set [6] concerns Salmonella strain TA100. In words: Ames mutagenic assay, strain TA100. Format: cell-based. As to the method: as §1, §2
Data set [7] relates to five strains of Salmonella bacteria. In words: Ames test, overall outcome. It is filed as cell-based. To be noted: with and without metabolic activation. As for the experimental part: as §1, §2

Turning to `Cc1cc(C(C)C)c(N)cc1N` [5iP24TDA, 5-isoPropyl-2,4-toluenediamine], the “lineshape coefficient A (quasi reaction rate constant, initial reactivity)” value in data set [1] is on record as 3.374.

Take `CCc1cc(C)c(N)c(CC)c1N` [35DE24TDA, 3,5-Diethyl-2,4-toluenediamine]: the “lineshape coefficient A (quasi reaction rate constant, initial reactivity)” value in data set [1] was found to be 1.350.

Consider chlorotoluenediamine [Cl-TDA], for which the “quantity of test compound that gave positive mutagenicity results” value (shortened to “quantity”) in data set [2] ((+) with metabolic activation) came to 50 micrograms per test plate; in data set [2] ((-) without metabolic activation), 500 micrograms per test plate; in data set [3] it was 5000 micrograms per test plate; in data set [4], 500 micrograms per test plate; in data set [5], 500 micrograms per test plate; in data set [6], 500 micrograms per test plate. Also, the Ames test result in data set [7] is recorded as “Ames positive”.

As to `Cc1c(N)ccc(C(C)C)c1N` [3iP26TDA, 3-isoPropyl-2,6-toluendiamine], the “lineshape coefficient A (quasi reaction rate constant, initial reactivity)” value in data set [1] is reported as “.5074”. As to `Cc1c(N)c(C(C)C)cc(C(C)C)c1N` [35DiP26TDA, 3,5-Diisopropyl-2,6-toluenediamine], in data set [1], the “lineshape coefficient A (quasi reaction rate constant, initial reactivity)” value turned out to be 1.563. As for “3-Cyclopentenyl-2,6-toluenediamine [3Cp26TDA]”, the “lineshape coefficient A (quasi reaction rate constant, initial reactivity)” value in data set [1] was “.7173”.

As to `CCc1cc(CC)c(N)c(C)c1N` [35DE26TDA, 3,5-Diethyl-2,6-toluenediamine], the “lineshape coefficient A (quasi reaction rate constant, initial reactivity)” value in data set [1] came out at 5.572. The same measure, in the same setting: under `Cc1cc(N)c(N)c(C(C)(C)C)c1` [3tB34TDA, 5-tertiaryButyl-3,4-toluenediamine] stands “.2764”.

On to `CCC(C)(C)c1ccc(N)c(C)c1N` [3tA26TDA, 3-tertiaryAmyl-2,6-toluenediamine], for which, in data set [1], the “lineshape coefficient A (quasi reaction rate constant, initial reactivity)” value is listed as “.08902”. Still for that read-out and setting: in the case of `Cc1cc(C(C)C)c(N)c(C(C)C)c1N` [35DiP24TDA, 3.5-Diisopropyl-2,4-toluenediamine] it was “.7499”.

Regarding `Cc1c(N)ccc(C(C)(C)C)c1N` [3tB26TDA, 3-tert-butyl-2,6-toluenediamine], the “lineshape coefficient A (quasi reaction rate constant, initial reactivity)” value is reported as “.06721” in data set [1] and 0.06721 in data set [1] (listed as Monotertiarybutylated 2,6-TDA). Turning to `CC(C)(C)c1ccc(N)cc1N` [tBBDA, tertiaryButyl-2,4-benzenediamine], the entries for the “quantity” value in data set [4] and in data set [5] were 1200 micrograms per test plate and 1800 micrograms per test plate, respectively.

As for `Cc1c(N)c(C(C)(C)C)cc(C(C)(C)C)c1N` [35DtB26TDA, 3,5-Ditertiarybutyl-2,6-toluenediamine], the “quantity” value in data set [4] turned out to be 50 micrograms per test plate; in data set [5] it was 15 micrograms per test plate; in data set [6], 50 micrograms per test plate. The Ames test result in data set [7] is reported as “Ames positive”. Further, in data set [1], the “lineshape coefficient A (quasi reaction rate constant, initial reactivity)” value is on record as “.1601”.

As to `Cc1cc(C(C)(C)C)c(N)c(C)c1N` [5tB24DAmX, 5-tertiaryButyl-2,4-diaminometaxylene], in data set [1], the “lineshape coefficient A (quasi reaction rate constant, initial reactivity)” value was “.8716”. For the molecule `Cc1c(N)ccc(C2(C)CCCC2)c1N` [3tMCp26TDA, 3-tertiaryMethylcyclopentyl-2,6-toluenediamine], the “lineshape coefficient A (quasi reaction rate constant, initial reactivity)” value in data set [1] is recorded as “.1722”. Turning to `Cc1c(N)cc(C(C)(C)C)cc1N` [4tB26TDA, 4-tertiaryButyl-2,6-toluenediamine], the “lineshape coefficient A (quasi reaction rate constant, initial reactivity)” value in data set [1] is listed as 3.867; in data set [1] (listed as 4-tertiarybutyl-2,6-toluenediamine), 3.87.
